Measured values as given in patent US8362000B2, “Azetidinyl diamides as monoacylglycerol lipase inhibitors” (Janssen Pharmaceutica NV, priority 2009, dated 2013).
Changes are numbered by the printed parent chain. Like-named read-outs stand apart in the source and are kept apart here.

What was measured:
[1] = molecular target: T1, purified wild type MGL (wt-MGLL 6H-11-313) (Homo sapiens, UniProt Q99685)
T1 sequence (Q99685 1-303): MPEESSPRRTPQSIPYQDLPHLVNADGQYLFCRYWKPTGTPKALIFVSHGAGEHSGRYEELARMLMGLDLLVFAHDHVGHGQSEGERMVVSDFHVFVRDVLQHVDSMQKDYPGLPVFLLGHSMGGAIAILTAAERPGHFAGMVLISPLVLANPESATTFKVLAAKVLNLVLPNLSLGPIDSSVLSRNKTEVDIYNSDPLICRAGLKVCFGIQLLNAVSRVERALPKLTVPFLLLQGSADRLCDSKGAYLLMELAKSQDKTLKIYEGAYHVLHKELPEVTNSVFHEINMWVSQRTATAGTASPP

MGL = molecular target: T2, MGL (Rattus norvegicus, UniProt Q8R431); test: 2-AG accumulation assay in rat brain homogenate; assay type: biochemical; conditions: rat brain homogenate, 2-AG accumulation as percent of vehicle; for 2-AG accumulation, % of vehicle control at 1 µM: compound 1 μM, read-out: Rat Brain 2AG % VehCntrl (%) @ 1 μM
T2 construct: one g rat brain was homogenized using a Polytron homogenizer; from tissue; host or cells: rat brain homogenate
T2 sequence (Q8R431 1-303): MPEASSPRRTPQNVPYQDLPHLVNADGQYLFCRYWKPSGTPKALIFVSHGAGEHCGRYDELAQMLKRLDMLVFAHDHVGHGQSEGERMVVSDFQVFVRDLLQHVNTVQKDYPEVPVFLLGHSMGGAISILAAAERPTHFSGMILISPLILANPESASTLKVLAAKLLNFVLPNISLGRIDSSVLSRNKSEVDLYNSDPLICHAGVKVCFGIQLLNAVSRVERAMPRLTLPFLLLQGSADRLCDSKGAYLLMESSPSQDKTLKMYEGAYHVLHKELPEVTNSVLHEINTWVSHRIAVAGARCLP

mutant MGL = molecular target: T3, mutant MGL (Homo sapiens, UniProt Q99685, L169S/L176S); test: MGL ThermoFluor assay - mutant; assay type: binding
T3 sequence (Q99685 1-303 L169S/L176S): T1 sequence (Q99685 1-303) with L169S, L176S
Method: The ThermoFluor (TF) assay is a 384-well plate-based binding assay that measures thermal stability of proteins^1,2. […] TF dye used in all experiments was 1,8-ANS (Invitrogen: A-47). Final TF assay conditions used for MGL studies were 0.07 mg/ml of mutant MGL, 100 μM ANS, 200 mM NaCl, 0.001% Tween-20 in 50 mM PIPES (pH=7.0).
Screening compound plates contained 100% DMSO compound solutions at a single concentration. […] Columns 12 and 24 were used as DMSO reference and contained no compound. […] Following compound dispension, protein and dye solutions were added to achieve the final assay volume of 3 μL.
Bar-coded assay plates were robotically loaded onto a thermostatically controlled PCR-type thermal block and then heated from 40 to 90° C. degrees at a ramp-rate of 1° C./min for all experiments. Fluorescence was measured by continuous illumination with UV light (Hamamatsu LC6), supplied via fiber optics and filtered through a band-pass filter (380-400 nm; >60D cutoff). Fluorescence emission of the entire 384-well plate was detected by measuring light intensity using a CCD camera (Sensys, Roper Scientific) filtered to detect 500±25 nm, resulting in simultaneous and independent readings of all 384 wells. A single image with 20-sec exposure time was collected at each temperature, and the sum of the pixel intensity in a given area of the assay plate was recorded vs temperature and fit to standard equations to yield the Tm^1. • 1.
For some experiments, quantitative NMR spectroscopy (qNMR) was used to measure concentration of the initial 100% DMSO compound solutions and, using the same fitting method, qKd values were determined

[2] = ThermoFluor concentration-response, read-out: MGL mutant ThermoFluor Kd
[3] = ThermoFluor, compound concentration measured by qNMR, read-out: MGL mutant ThermoFluor qKd (μM) (using qNMR conc.)

| SMILES | IC50 [1] | 2-AG accumulation, % of vehicle control at 1 µM (MGL) | Kd (mutant MGL; [2]) | 2-AG accumulation, % of vehicle control at 10 µM (MGL; compound 10 μM, read-out: Rat Brain 2AG % VehCntrl (%) @ 10 μM) | Kd (mutant MGL; ThermoFluor thermal stability binding assay, read-out: MGL mutant ThermoFluor Kd) | Kd (mutant MGL; [3]) |
| --- | --- | --- | --- | --- | --- | --- |
| O=C(c1ccccc1)N1CCN(C2CN(C(=O)c3ccc(Sc4cccc(C(F)(F)F)c4)cc3)C2)CC1 [Cpd 430] | 23.6 nM | 114% | 0.0667 µM |  |  |  |
| O=C(c1ccc(Sc2cccc(C(F)(F)F)c2)cc1)N1CC(N2CCN(C(=O)c3cscn3)CC2)C1 [Cpd 432] | < 5 nM | 321% | 0.025 µM |  |  |  |
| Cc1c(-c2ccccc2)oc2c(C(=O)N3CC(N4CCN(C(=O)c5nccs5)CC4)C3)cccc2c1=O [Cpd 476] | 338 nM |  | 0.0667 µM | 272% |  |  |
| Cc1c(C(=O)N2CC(N3CCN(C(=O)c4ccccc4)CC3)C2)sc2ccc(C(F)(F)F)cc12 [Cpd 504] | 10 nM | 178% |  |  | 0.024 µM |  |
| Cc1c(C(=O)N2CC(N3CCN(C(=O)c4ccccc4)CC3)C2)sc2cc(C(F)(F)F)ccc12 [Cpd 505] | 39 nM | 236% | 0.01 µM |  |  |  |
| O=C(c1ccccc1)N1CCN(C2CN(C(=O)c3sc4ccc(Cl)cc4c3C(F)(F)F)C2)CC1 [Cpd 506] | 48 nM | 132% | 0.059 µM |  |  |  |
| O=C(c1ccccc1)N1CCN(C2CN(C(=O)c3ccc(Oc4ncc(C(F)(F)F)cc4Cl)cc3)C2)CC1 [Cpd 507] | 52 nM | 190% | 0.317 µM |  |  |  |
| O=C(c1ccccc1)N1CCN(C2CN(C(=O)c3ccc(S(=O)(=O)c4cccc(C(F)(F)F)c4)cc3)C2)CC1 [Cpd 508] | 107 nM | 119% | 0.162 µM |  |  |  |
| O=C(c1ccccc1)N1CCN(C2CN(C(=O)c3ccc(Cc4cccc(C(F)(F)F)c4)cc3)C2)CC1 [Cpd 547] | < 5 nM | 652% | 0.072 µM |  |  |  |
| O=C(c1ccccc1)N1CCN(C2CN(C(=O)c3ccc4c(ccn4-c4cc(F)c(F)c(F)c4)c3)C2)CC1 [Cpd 569] | 21 nM | 198% |  |  |  | 0.059 µM |
| Cc1c(C(=O)N2CC(N3CCN(C(=O)c4ccccc4)CC3)C2)sc2ccc(-c3ccccc3)cc12 [Cpd 570, 1-{1-[(3-Methyl-5-phenyl-1-benzothiophen-2-yl)carbonyl]azetidin-3-yl}-4-(phenylcarbonyl)piperazine] | 22 nM | 210% | 0.03 µM |  |  |  |
| O=C(c1ccccc1)N1CCN(C2CN(C(=O)c3ccc4c(ccn4-c4ccc(OC(F)(F)F)cc4)c3)C2)CC1 [Cpd 573] | 46 nM | 277% |  |  |  | 0.1 µM |
| Cc1cn(-c2ccccc2)c2ccc(C(=O)N3CC(N4CCN(C(=O)c5ccccc5)CC4)C3)cc12 [Cpd 577] | 52 nM | 207% |  |  |  | 0.026 µM |
| O=C(c1ccccc1)N1CCN(C2CN(C(=O)c3ccc4c(ccn4-c4cc(F)cc(F)c4)c3)C2)CC1 [Cpd 580] | 69 nM | 179% |  |  |  | 0.118 µM |
| O=C(c1ccccc1)N1CCN(C2CN(C(=O)c3ccc4c(-c5ccc(C(F)(F)F)cc5)c[nH]c4c3)C2)CC1 [Cpd 634] | 57 nM | 301% | 0.054 µM |  |  |  |
| CCCCCCCCCCCCCCCC(=O)N1CC(N2CCN(C(=O)c3nccs3)CC2)C1 [Cpd 636] | 21 nM | 296% | 0.119 µM |  |  |  |
| O=C(c1nccs1)N1CCN(C2CN(C(=O)C3CCC(c4ccc(Cl)cc4)CC3)C2)CC1 (stereo not drawn) [Cpd 637] | 41 nM | 272% | 0.053 µM |  |  |  |
